In the supplement of paper PMC10307832:

Compound: COc1cc(N2CCC(N3CCN(C)CC3)CC2)ccc1Nc1ncc(Cl)c(Nc2ccccc2S(=O)(=O)C(C)C)n1 [NVP-TAE684] + Nc1ncn([C@H]2C[C@H](O)[C@@H](CO)O2)c(=O)n1 [Decitabine] (partner 2 µM)
Test: relative viability (nuclei count vs DMSO), 5 days (fraction); higher = more cells survive
Outline: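 Lung cancer cell lines were seeded in 1536-well plates and dosed by pin tool the next day, with either a single drug or a fixed anchor-drug dose combined with five library-drug doses (not always all listed) spaced in √10 steps. Five days later, one step fixed the cells and stained their nuclei (final 0.05% Triton X-100, 1% formaldehyde, 1 ug/ml Hoechst), and nuclei were counted on 4× images. Relative viability is the nuclei count in treated wells divided by the count in vehicle wells, and each value is the median of duplicate plates.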

UMC-11
relative viability (first compound 0.2 µM): 0.582 | relative viability (first compound 0.6325 µM): 0.581 | relative viability (first compound 2 µM): 0.346
